Measured values from US10947252B2, “Inhibitors of KEAP1-Nrf2 protein-protein interaction” (Janssen Pharmaceutica NV, priority 2018, dated 2021).

Key:
[1] = molecular target: Kelch domain of human KEAP1 (321-624 aa) (Homo sapiens (Human), UniProt Q14145); assay: KEAP1 KELCH ThermoFluor binding assay; details: KEAP Kelch […], 1,8-ANS, pH 7.0, average of results obtained, read-out: Tf Kd;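 also: Ligand-induced melting temperature shift of E. coli-expressed KEAP1 Kelch protein, Kd estimated from concentration-response curves of ΔTm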
Sequence of Kelch domain of human KEAP1 (321-624 aa) (Q14145 321-624): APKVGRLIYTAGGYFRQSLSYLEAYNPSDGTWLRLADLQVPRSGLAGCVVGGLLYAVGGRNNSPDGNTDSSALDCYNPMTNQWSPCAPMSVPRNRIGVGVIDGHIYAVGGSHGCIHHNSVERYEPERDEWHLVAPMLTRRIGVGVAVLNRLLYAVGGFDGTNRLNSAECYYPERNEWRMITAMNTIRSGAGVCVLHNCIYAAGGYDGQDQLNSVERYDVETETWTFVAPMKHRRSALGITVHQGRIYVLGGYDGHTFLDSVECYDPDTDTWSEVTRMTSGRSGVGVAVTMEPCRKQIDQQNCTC

[2] = tested on: Glo-Response ARE-luc2P HEK293 cell line; assay: ARE luciferase reporter cell-based assay; details: Homo sapiens, HEK293, 24 h, average of results obtained;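 also: luciferase signal tracks Nrf2 activation of the ARE once compounds disrupt KEAP1-Nrf2 binding, read with One-Glo reagent, DMSO serving as low control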

SMILES: Cc1ccc([C@H](c2ccc3c(nnn3CC3CC3)c2C)C(C)(C)C(=O)O)nc1CN1CC2(CCOCC2)Oc2nc(OCCN3CCOCC3)ccc2S1(=O)=O (single isomer, unassigned) [Example 329, (*R)-3-(1-(Cyclopropylmethyl)-4-methyl-1H-benzo[d][1,2,3]triazol-5-yl)-2,2-dimethyl-3-(5-methyl-6-((7′-(2-morpholinoethoxy)-1′,1′-dioxido-2,3,5,6-tetrahydrospiro[pyran-4,4′-pyrido[2,3-b][1,4,5]oxathiazepin]-2′(3′H)-yl)methyl)pyridin-2-yl)propanoic Acid]
- Kd [1]: 1880 nM
- EC50 [2]: 1900 nM

SMILES: Cc1cnc2c(c1)S(=O)(=O)N(Cc1cc([C@@H](c3cc4cc(C)nnc4n3C)C(C)(C)C(=O)O)ccc1C)CC1(CC1)O2 (single isomer, unassigned) [Example 330, (*S)-3-(3,7-Dimethyl-7H-pyrrolo[2,3-c]pyridazin-6-yl)-2,2-dimethyl-3-(4-methyl-3-((8′-methyl-1′,1′-dioxidospiro[cyclopropane-1,4′-pyrido[2,3-b][1,4,5]oxathiazepin]-2′(3′H)-yl)methyl)phenyl)propanoic Acid]
- Kd [1]: 1590 nM
- EC50 [2]: 7520 nM

SMILES: Cc1cnc2c(c1)S(=O)(=O)N(Cc1cc([C@H](c3cc4cc(C)nnc4n3C)C(C)(C)C(=O)O)ccc1C)CC1(CC1)O2 (single isomer, unassigned) [Example 331, (*R)-3-(3,7-Dimethyl-7H-pyrrolo[2,3-c]pyridazin-6-yl)-2,2-dimethyl-3-(4-methyl-3-((8′-methyl-1′,1′-dioxidospiro[cyclopropane-1,4′-pyrido[2,3-b][1,4,5]oxathiazepin]-2′(3′H)-yl)methyl)phenyl)propanoic Acid]
- Kd [1]: < 1 nM
- EC50 [2]: 17.1 nM

SMILES: Cc1cnc2c(c1)S(=O)(=O)N(Cc1cc([C@@H](c3ccn4c(C(F)F)nnc4c3C)C(C)(C)C(=O)O)ncc1C)CC1(CC1)O2 (single isomer, unassigned) [Example 332, (*S)-3-(3-(Difluoromethyl)-8-methyl-[1,2,4]triazolo[4,3-a]pyridin-7-yl)-2,2-dimethyl-3-(5-methyl-4-((8′-methyl-1′,1′-dioxidospiro[cyclopropane-1,4′-pyrido[2,3-b][1,4,5]oxathiazepin]-2′(3′H)-yl)methyl)pyridin-2-yl)propanoic acid]
- Kd [1]: < 1 nM
- EC50 [2]: 25.6 nM

SMILES: Cc1cnc2c(c1)S(=O)(=O)N(Cc1cc([C@H](c3ccn4c(C(F)F)nnc4c3C)C(C)(C)C(=O)O)ncc1C)CC1(CC1)O2 (single isomer, unassigned) [Example 333, (*R)-3-(3-(difluoromethyl)-8-methyl-[1,2,4]triazolo[4,3-a]pyridin-7-yl)-2,2-dimethyl-3-(5-methyl-4-((8′-methyl-1′,1′-dioxidospiro[cyclopropane-1,4′-pyrido[2,3-b][1,4,5]oxathiazepin]-2′(3′H)-yl)methyl)pyridin-2-yl)propanoic Acid]
- Kd [1]: 1720 nM
- EC50 [2]: 3980 nM

SMILES: Cc1cnc2c(c1)S(=O)(=O)N(Cc1nc([C@@H](c3ccn4c(C(F)F)nnc4c3C)C(C)(C)C(=O)O)ccc1C)CC1(CC1)O2 (single isomer, unassigned) [Example 334, (*S)-3-(3-(Difluoromethyl)-8-methyl-[1,2,4]triazolo[4,3-a]pyridin-7-yl)-2,2-dimethyl-3-(5-methyl-6-((8′-methyl-1′,1′-dioxidospiro[cyclopropane-1,4′-pyrido[2,3-b][1,4,5]oxathiazepin]-2′(3′H)-yl)methyl)pyridin-2-yl)propanoic Acid]
- Kd [1]: < 1 nM
- EC50 [2]: 5.2 nM

SMILES: Cc1cnc2c(c1)S(=O)(=O)N(Cc1nc([C@H](c3ccn4c(C(F)F)nnc4c3C)C(C)(C)C(=O)O)ccc1C)CC1(CC1)O2 (single isomer, unassigned) [Example 335, (*R)-3-(3-(Difluoromethyl)-8-methyl-[1,2,4]triazolo[4,3-a]pyridin-7-yl)-2,2-dimethyl-3-(5-methyl-6-((8′-methyl-1′,1′-dioxidospiro[cyclopropane-1,4′-pyrido[2,3-b][1,4,5]oxathiazepin]-2′(3′H)-yl)methyl)pyridin-2-yl)propanoic Acid]
- Kd [1]: 2440 nM
- EC50 [2]: 4620 nM

SMILES: Cc1ccc([C@H](c2ccn3c(C(F)(F)F)nnc3c2C)C(C)(C)C(=O)O)cc1CN1CC2(CCNCC2)Oc2ncccc2S1(=O)=O (single isomer, unassigned) [Example 337, (*R)-3-(3-((1′,1′-Dioxidospiro[piperidine-4,4′-pyrido[2,3-b][1,4,5]oxathiazepin]-2′(3′H)-yl)methyl)-4-methylphenyl)-2,2-dimethyl-3-(8-methyl-3-(trifluoromethyl)-[1,2,4]triazolo[4,3-a]pyridin-7-yl)propanoic Acid]
- Kd [1]: > 10000 nM
- EC50 [2]: > 20 nM

SMILES: Cc1ccc([C@@H](c2ccn3c(C(F)(F)F)nnc3c2C)C(C)(C)C(=O)O)cc1CN1CC2(CNC2)Oc2ncccc2S1(=O)=O (single isomer, unassigned) [Example 338, (*S)-3-(3-((1′,1′-Dioxidospiro[azetidine-3,4′-pyrido[2,3-b][1,4,5]oxathiazepin]-2′(3′H)-yl)methyl)-4-methylphenyl)-2,2-dimethyl-3-(8-methyl-3-(trifluoromethyl)-[1,2,4]triazolo[4,3-a]pyridin-7-yl)propanoic Acid]
- Kd [1]: < 1 nM
- EC50 [2]: 13.1 nM

SMILES: Cc1ccc([C@H](c2ccn3c(C(F)(F)F)nnc3c2C)C(C)(C)C(=O)O)cc1CN1CC2(CNC2)Oc2ncccc2S1(=O)=O (single isomer, unassigned) [Example 339, (*R)-3-(3-((1′,1′-Dioxidospiro[azetidine-3,4′-pyrido[2,3-b][1,4,5]oxathiazepin]-2′(3′H)-yl)methyl)-4-methylphenyl)-2,2-dimethyl-3-(8-methyl-3-(trifluoromethyl)-[1,2,4]triazolo[4,3-a]pyridin-7-yl)propanoic Acid]
- Kd [1]: 80200 nM
- EC50 [2]: 6320 nM

SMILES: Cc1cnc2c(c1)S(=O)(=O)N(Cc1cc([C@@H](c3ccn4c(C(F)(F)F)nnc4c3C)C(C)(C)C(=O)O)ccc1C)CC1(CCNCC1)O2 (single isomer, unassigned) [Example 340, (*S)-2,2-Dimethyl-3-(4-methyl-3-((8′-methyl-1′,1′-dioxidospiro[piperidine-4,4′-pyrido[2,3-b][1,4,5]oxathiazepin]-2′(3′H)-yl)methyl)phenyl)-3-(8-methyl-3-(trifluoromethyl)-[1,2,4]triazolo[4,3-a]pyridin-7-yl)propanoic Acid]
- Kd [1]: 1.24 nM
- EC50 [2]: 629 nM

SMILES: Cc1cnc2c(c1)S(=O)(=O)N(Cc1cc([C@H](c3ccn4c(C(F)(F)F)nnc4c3C)C(C)(C)C(=O)O)ccc1C)CC1(CCNCC1)O2 (single isomer, unassigned) [Example 341, (*R)-2,2-Dimethyl-3-(4-methyl-3-((8′-methyl-1′,1′-dioxidospiro[piperidine-4,4′-pyrido[2,3-b][1,4,5]oxathiazepin]-2′(3′H)-yl)methyl)phenyl)-3-(8-methyl-3-(trifluoromethyl)-[1,2,4]triazolo[4,3-a]pyridin-7-yl)propanoic Acid]
- Kd [1]: 18800 nM
- EC50 [2]: > 20 nM

SMILES: Cc1cnc2c(c1)S(=O)(=O)N(Cc1cc([C@@H](c3ccn4c(C(F)(F)F)nnc4c3C)C(C)(C)C(=O)O)ccc1C)CC1(CNC1)O2 (single isomer, unassigned) [Example 342, (*S)-2,2-Dimethyl-3-(4-methyl-3-((8′-methyl-1′,1′-dioxidospiro[azetidine-3,4′-pyrido[2,3-b][1,4,5]oxathiazepin]-2′(3′H)-yl)methyl)phenyl)-3-(8-methyl-3-(trifluoromethyl)-[1,2,4]triazolo[4,3-a]pyridin-7-yl)propanoic Acid]
- Kd [1]: < 1 nM
- EC50 [2]: 5.6 nM

SMILES: Cc1cnc2c(c1)S(=O)(=O)N(Cc1cc([C@H](c3ccn4c(C(F)(F)F)nnc4c3C)C(C)(C)C(=O)O)ccc1C)CC1(CNC1)O2 (single isomer, unassigned) [Example 343, (*R)-2,2-Dimethyl-3-(4-methyl-3-((8′-methyl-1′,1′-dioxidospiro[azetidine-3,4′-pyrido[2,3-b][1,4,5]oxathiazepin]-2′(3′H)-yl)methyl)phenyl)-3-(8-methyl-3-(trifluoromethyl)-[1,2,4]triazolo[4,3-a]pyridin-7-yl)propanoic Acid]
- Kd [1]: 32200 nM
- EC50 [2]: 1570 nM

SMILES: Cc1ccc([C@@H](c2ccn3c(C(F)F)nnc3c2C)C(C)(C)C(=O)O)nc1CN1CC2(CCOCC2)Oc2nc(OCCN3CCCCC3)c(C)cc2S1(=O)=O (single isomer, unassigned) [Example 354, (*S)-3-(3-(Difluoromethyl)-8-methyl-[1,2,4]triazolo[4,3-a]pyridin-7-yl)-2,2-dimethyl-3-(5-methyl-6-((8′-methyl-1′,1′-dioxido-7′-(2-(piperidin-1-yl)ethoxy)-2,3,5,6-tetrahydrospiro[pyran-4,4′-pyrido[2,3-b][1,4,5]oxathiazepin]-2′(3′H)-yl)methyl)pyridin-2-yl)propanoic Acid]
- Kd [1]: < 1 nM
- EC50 [2]: 20.6 nM

SMILES: Cc1ccc([C@H](c2ccn3c(C(F)F)nnc3c2C)C(C)(C)C(=O)O)nc1CN1CC2(CCOCC2)Oc2nc(OCCN3CCCCC3)c(C)cc2S1(=O)=O (single isomer, unassigned) [Example 355, (*R)-3-(3-(Difluoromethyl)-8-methyl-[1,2,4]triazolo[4,3-a]pyridin-7-yl)-2,2-dimethyl-3-(5-methyl-6-((8′-methyl-1′,1′-dioxido-7′-(2-(piperidin-1-yl)ethoxy)-2,3,5,6-tetrahydrospiro[pyran-4,4′-pyrido[2,3-b][1,4,5]oxathiazepin]-2′(3′H)-yl)methyl)pyridin-2-yl)propanoic Acid]
- Kd [1]: 3070 nM
- EC50 [2]: 1140 nM

SMILES: Cc1ccc([C@@H](c2ccn3c(C(F)F)nnc3c2C)C(C)(C)C(=O)O)nc1CN1CC2(CC2)Oc2nc(OCCN3CCCCC3)c(C)cc2S1(=O)=O (single isomer, unassigned) [Example 356, (*S)-3-(3-(Difluoromethyl)-8-methyl-[1,2,4]triazolo[4,3-a]pyridin-7-yl)-2,2-dimethyl-3-(5-methyl-6-((8′-methyl-1′,1′-dioxido-7′-(2-(piperidin-1-yl)ethoxy)spiro[cyclopropane-1,4′-pyrido[2,3-b][1,4,5]oxathiazepin]-2′(3′H)-yl)methyl)pyridin-2-yl)propanoic Acid]
- Kd [1]: 3550 nM
- EC50 [2]: 11.8 nM
